Data: ChEMBL document CHEMBL1201862, “PubChem BioAssay data set” (2004)
Active and inactive are the calls of the source.

Experiments:
[1] = biological target: Nonstructural protein 1 (Influenza A virus, UniProt Q194T2); type: functional, Influenza A virus (A/California/07/2009(H1N1))
[2] = Shn3 3'UTR reporter inhibitors, dose response, cell-based, Clone20 osteoblasts, firefly luciferase, cherry-picked (AID 624132); type: functional;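 note: firefly luciferase luminescence from reporter carrying the Shn3 3'UTR in osteoblasts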
[3] = control 3'UTR Renilla luciferase suppression, dose response, counter-screen for Shn3 inhibitor project, cell-based, Clone20-Shn3RL, cherry-picked (AID 624133); type: functional
[4] = biological target: T1, Ubiquitin-conjugating enzyme E2 N (Homo sapiens, UniProt P61088); type: functional;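 note: Dose-response confirmation in a TR-FRET assay detecting UBC13-driven polyubiquitin chain formation, inhibition measured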
T1 sequence (P61088 whole entry): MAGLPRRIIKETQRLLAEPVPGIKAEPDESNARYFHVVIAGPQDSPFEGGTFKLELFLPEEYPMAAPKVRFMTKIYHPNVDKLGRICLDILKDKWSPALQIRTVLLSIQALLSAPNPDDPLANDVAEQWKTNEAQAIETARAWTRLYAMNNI

[5] = inhibitors of clade B AD8 Env fusion, dose response, cell-based, cherry-pick (AID 652062); type: functional;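 note: luciferase signal from cell-cell fusion driven by HIV-1 clade B AD8 Env; potency is for inhibitors of fusion seen as a drop in luminescence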
[6] = off-target signal loss in HeLa-CEM21 co-culture – HeLa F-luc CTL cells, cherry-picked, counter-screen for HIV-1 Env fusion inhibitor project, dose response (AID 652040); type: functional, cell-based;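 note: potency for signal decrease marking cytotoxic or nonspecific inhibition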
[7] = biological target: Heat shock protein HSP 90-alpha (Homo sapiens, UniProt P07900); type: functional, organism-based
[8] = biological target: T2, Cytochrome P450 1A2 (Homo sapiens, UniProt P05177);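 note: PubChem cytochrome P450 panel assay, CYP1A2 panel member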
T2 sequence (P05177 whole entry): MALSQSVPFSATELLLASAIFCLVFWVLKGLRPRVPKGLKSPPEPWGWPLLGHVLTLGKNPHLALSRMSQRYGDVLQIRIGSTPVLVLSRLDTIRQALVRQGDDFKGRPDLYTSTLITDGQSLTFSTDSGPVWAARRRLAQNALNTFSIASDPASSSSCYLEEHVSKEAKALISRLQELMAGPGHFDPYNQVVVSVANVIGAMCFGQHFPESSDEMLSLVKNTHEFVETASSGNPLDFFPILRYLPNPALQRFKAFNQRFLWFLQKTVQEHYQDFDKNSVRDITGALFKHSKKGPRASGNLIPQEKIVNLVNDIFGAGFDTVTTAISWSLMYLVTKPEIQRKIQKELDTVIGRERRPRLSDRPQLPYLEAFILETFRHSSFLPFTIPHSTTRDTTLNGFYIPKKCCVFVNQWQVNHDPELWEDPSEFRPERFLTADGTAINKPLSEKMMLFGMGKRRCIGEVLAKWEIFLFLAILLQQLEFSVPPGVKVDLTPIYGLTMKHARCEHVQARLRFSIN

[9] = system: Streptococcus sp. 'group A'; experiment: growth inhibition of control SK(-) GAS strain, dose response, counter-screen for streptokinase expression inhibitor project, luminescence, kanamycin, BacTiterGlo, confirmation (AID 1900); type: functional, organism-based
[10] = system: Streptococcus; experiment: Group A Streptococcus viability loss, dose response, counter-screen for streptokinase expression inhibitor project, luminescence, BacTiterGlo (AID 1915); type: functional, organism-based;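 note: potency for reduction of bacterial viability or growth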
[11] = biological target: Cytochrome P450 2C9 (Homo sapiens, UniProt P11712)
[12] = ZM109 Env clade C HIV-1 fusion inhibitors, dose response, HeLa effector, CEM target cells, luciferase, cherry-pick (AID 652058); type: functional, cell-based
[13] = biological target: T3, Streptokinase A (Streptococcus pyogenes serotype M1, UniProt P10520); experiment: S. pyogenes streptokinase expression inhibitors, potency, dose response, plasminogen activation absorbance, OD405 (AID 1914); type: functional, Streptococcus pyogenes M1 GAS;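 note: secreted streptokinase activity via plasminogen activation per viability signal from cell pellet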
T3 sequence (P10520 whole entry): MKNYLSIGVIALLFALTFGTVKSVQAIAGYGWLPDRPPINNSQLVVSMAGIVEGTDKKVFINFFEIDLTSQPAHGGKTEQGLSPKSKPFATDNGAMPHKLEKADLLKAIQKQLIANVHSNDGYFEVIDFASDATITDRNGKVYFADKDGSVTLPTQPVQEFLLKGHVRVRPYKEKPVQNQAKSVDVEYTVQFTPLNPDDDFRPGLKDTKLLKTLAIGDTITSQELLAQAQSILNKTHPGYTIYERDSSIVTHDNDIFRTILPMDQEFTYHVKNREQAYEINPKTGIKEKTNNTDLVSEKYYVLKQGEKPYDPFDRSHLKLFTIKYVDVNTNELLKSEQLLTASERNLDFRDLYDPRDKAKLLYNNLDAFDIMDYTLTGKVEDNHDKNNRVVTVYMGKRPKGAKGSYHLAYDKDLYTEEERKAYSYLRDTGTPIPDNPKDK

[14] = inhibitors of HIV Env-driven cell fusion, dose response, cherry-pick (AID 652057); type: functional, cell-based
[15] = cells; type: functional, cell-based
[16] = cells; type: functional, cell-based; remark: listed apart in the source
[17] = biological target: T4, Short transient receptor potential channel 4 (Mus musculus, UniProt Q9QUQ5); experiment: mouse TRPC4 channel activators, dose response, cell-based, HEK293 TRPC4/mu-opioid, Fluo-4 calcium (AID 434937); type: functional
T4 sequence (Q9QUQ5 whole entry): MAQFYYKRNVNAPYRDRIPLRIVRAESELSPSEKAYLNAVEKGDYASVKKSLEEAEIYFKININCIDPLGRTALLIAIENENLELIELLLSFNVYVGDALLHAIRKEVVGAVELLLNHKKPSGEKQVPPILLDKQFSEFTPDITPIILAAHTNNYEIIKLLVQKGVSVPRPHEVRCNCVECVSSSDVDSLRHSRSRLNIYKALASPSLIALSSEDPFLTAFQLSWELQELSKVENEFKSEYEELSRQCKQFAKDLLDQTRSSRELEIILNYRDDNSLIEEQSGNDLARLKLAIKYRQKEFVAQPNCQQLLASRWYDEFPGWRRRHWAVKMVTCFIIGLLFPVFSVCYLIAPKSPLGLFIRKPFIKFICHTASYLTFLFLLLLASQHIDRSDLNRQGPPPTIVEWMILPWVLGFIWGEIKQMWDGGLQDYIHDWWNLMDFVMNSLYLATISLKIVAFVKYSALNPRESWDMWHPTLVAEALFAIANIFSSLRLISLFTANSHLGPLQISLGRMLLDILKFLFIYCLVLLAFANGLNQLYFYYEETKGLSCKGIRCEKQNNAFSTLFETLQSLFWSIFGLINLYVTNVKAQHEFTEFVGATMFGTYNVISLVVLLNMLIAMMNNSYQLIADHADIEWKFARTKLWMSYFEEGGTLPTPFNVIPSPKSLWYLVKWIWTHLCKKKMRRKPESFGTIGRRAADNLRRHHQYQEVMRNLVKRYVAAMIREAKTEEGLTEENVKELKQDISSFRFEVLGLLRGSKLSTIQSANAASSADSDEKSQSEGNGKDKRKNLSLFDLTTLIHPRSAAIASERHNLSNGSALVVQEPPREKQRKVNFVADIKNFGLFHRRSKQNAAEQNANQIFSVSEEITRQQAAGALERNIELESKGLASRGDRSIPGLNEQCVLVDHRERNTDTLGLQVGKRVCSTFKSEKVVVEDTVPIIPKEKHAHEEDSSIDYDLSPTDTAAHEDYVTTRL

[18] = biological target: T5, Coagulation factor XII (Homo sapiens, UniProt P00748); type: functional;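 note: activated factor XIIa alpha cleaving a fluorogenic AMC peptide substrate; inhibitor potency from loss of enzyme activity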
T5 sequence (P00748 whole entry): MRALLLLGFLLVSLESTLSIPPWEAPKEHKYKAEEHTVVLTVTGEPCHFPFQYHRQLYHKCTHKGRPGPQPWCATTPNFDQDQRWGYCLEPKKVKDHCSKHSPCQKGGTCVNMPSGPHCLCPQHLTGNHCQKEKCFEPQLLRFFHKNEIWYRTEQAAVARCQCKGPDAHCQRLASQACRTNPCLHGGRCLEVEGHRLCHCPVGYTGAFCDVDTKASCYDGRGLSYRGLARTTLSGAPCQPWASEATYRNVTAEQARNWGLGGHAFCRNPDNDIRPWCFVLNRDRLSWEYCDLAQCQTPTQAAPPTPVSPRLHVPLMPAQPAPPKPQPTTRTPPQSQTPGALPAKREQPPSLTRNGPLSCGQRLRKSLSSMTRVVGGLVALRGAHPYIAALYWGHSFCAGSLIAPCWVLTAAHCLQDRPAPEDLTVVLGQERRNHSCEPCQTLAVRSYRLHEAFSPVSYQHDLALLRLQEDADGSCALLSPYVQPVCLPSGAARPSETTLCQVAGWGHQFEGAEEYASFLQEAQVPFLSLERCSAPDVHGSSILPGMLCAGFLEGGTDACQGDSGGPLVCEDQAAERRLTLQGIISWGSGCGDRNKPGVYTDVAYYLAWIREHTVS

Chain of Nonstructural protein 1 (Q194T2 whole entry): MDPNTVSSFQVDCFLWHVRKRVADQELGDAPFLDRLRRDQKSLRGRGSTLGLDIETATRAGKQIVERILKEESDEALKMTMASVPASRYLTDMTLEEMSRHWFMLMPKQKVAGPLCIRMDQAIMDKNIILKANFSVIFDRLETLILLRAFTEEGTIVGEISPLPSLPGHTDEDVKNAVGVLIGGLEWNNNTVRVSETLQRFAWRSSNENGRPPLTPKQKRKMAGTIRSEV
Chain of Cytochrome P450 2C9 (P11712 whole entry, the tested form may be a part): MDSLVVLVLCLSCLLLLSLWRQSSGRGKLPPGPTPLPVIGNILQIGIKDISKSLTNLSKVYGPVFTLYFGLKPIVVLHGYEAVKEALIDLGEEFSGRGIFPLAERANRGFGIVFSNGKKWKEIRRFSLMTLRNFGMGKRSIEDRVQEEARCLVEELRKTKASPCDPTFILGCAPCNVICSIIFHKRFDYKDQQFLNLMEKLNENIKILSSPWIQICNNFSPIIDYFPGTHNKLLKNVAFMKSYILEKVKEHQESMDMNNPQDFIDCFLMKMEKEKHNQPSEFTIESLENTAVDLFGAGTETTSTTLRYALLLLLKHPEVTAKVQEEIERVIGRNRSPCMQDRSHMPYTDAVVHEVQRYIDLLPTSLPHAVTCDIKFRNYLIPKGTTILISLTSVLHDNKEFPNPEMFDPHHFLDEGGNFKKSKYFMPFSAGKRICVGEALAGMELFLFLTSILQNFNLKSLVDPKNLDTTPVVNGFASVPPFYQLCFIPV

N#Cc1nc(-c2ccco2)oc1N1CCc2ccccc2C1
IC50 [1]: > 100 µM (active)

N#C/C(=C/C1=C(N2CCOCC2)C(=C/c2ccccc2)/CC1)C(=O)Nc1ccccc1F
IC50 [1]: 3.83 µM (active)

CC(C)CCC(C(=O)O)C(C)CC(=O)NNC(=O)c1ccco1 (stereo not given)
AC50 [2]: > 70 µM (inactive) | AC50 [3]: 19.9 µM (active)

O=C(CCCCCN1C(=O)c2cccc3cccc(c23)C1=O)NC1CCS(=O)(=O)C1 (stereo not given)
IC50 [4]: > 20 µM (inactive)

c1ccc(C[C@H]2CNCCN2CCC23CC4CC(CC(C4)C2)C3)cc1
IC50 [4]: > 20 µM (inactive)

COc1cccc(-c2nnc3n2N=C(c2cc(OC)ccc2OC)CS3)c1
IC50 [4]: > 20 µM (inactive)

Cc1cccc(C)c1NC(=O)CCCSc1nnc(-c2ccc(Cl)cc2)n1-c1ccccc1
AC50 [5]: 10.5 µM (active) | AC50 [6]: 48.8 µM (active)

COc1ccc(C(=O)O/N=C2\C(=O)N(C)c3ccccc32)cc1
AC50 [7]: 1.1 µM (active)

CCCCCCc1nc2ccccc2c(=O)n1NC(=O)c1c(O)c2c(n(CC(C)C)c1=O)CCCC2
AC50 [8]: 15.8 µM (inconclusive) | EC50 [9]: 84.9 µM (active) | EC50 [10]: > 150 µM (not active) | AC50 [11]: 708 nM (inconclusive) | AC50 [6]: 4.42 µM (active) | AC50 [12]: 69.4 µM (active) | EC50 [13]: > 150 µM (not active) | AC50 [14]: 22.8 µM (active)

Nc1ncnc2c1ncn2CCN1CCOCC1
EC50 [15]: > 350 µM (not active) | EC50 [16]: > 350 µM (not active)

CCOC(=O)C1(Cc2cccc(F)c2)CCN(Cc2cnn(CC)c2)CC1
EC50 [17]: 668 nM (active)

C=CCNc1ncnc2ccc(Br)cc12
AC50 [5]: 6.46 µM (active) | AC50 [6]: 5.9 µM (active) | AC50 [12]: 39.1 µM (active) | AC50 [14]: 4.53 µM (active)

C#CCOCCOCCOCCNc1nc(N2CCN(C(=O)[C@H](CCCN=C(N)N)n3cc(C(N)[C@@H](C)CC)nn3)CC2)nc(N2CCN(C(=O)[C@H](CC(N)=O)n3cc([C@@H](N)CC(N)=O)nn3)CC2)n1 (stereo not given in full)
IC50 [4]: > 20 µM (inactive)

CCOC(=O)c1cccc(NC(=O)CSc2nnc(-c3ccoc3C)n2CCOC)c1
IC50 [18]: > 50 µM (inactive)

Nc1nc(N)nc(-c2ccccn2)n1
IC50 [1]: 19.9 µM (active)

O=C(CCC(=O)N/N=C/c1ccc(Br)s1)NCc1ccccc1
IC50 [18]: > 50 µM (inactive)

COCCNC(=O)C(=O)NCC1OCCN1S(=O)(=O)c1cc(F)ccc1F (stereo not given)
EC50 [15]: > 350 µM (not active) | EC50 [16]: > 350 µM (not active)

CC12CC3(C)CC(C)(C1)CC(C(=O)NCCc1ccc(S(N)(=O)=O)cc1)(C2)C3
EC50 [15]: > 350 µM (not active) | EC50 [16]: > 350 µM (not active)

O=C(CSc1nc2ccsc2c(=O)n1Cc1ccc(C(=O)O)cc1)NCc1ccco1
IC50 [4]: > 20 µM (inactive)

CCN1CCN(c2ccc(S(=O)(=O)N3CCOCC3)cc2NC(=O)c2ccccc2OC(F)F)CC1
EC50 [17]: 299 nM (active)

CC1CN(c2ccc([N+](=O)[O-])c3cccnc23)CC(C)N1 (stereo not given)
EC50 [17]: 335 nM (active)

CC1CN(S(=O)(=O)c2cccc(C(=O)N(CCc3ccccc3)Cc3ccccc3)c2)CC(C)O1 (stereo not given)
EC50 [15]: > 350 µM (not active) | EC50 [16]: > 350 µM (not active)

O=C(C1CCCN(Cc2ccncc2)C1)N1CCc2ccccc2C1 (stereo not given)
EC50 [17]: 188 nM (active)

CC[C@@]1(C(=O)OC)N[C@H](CN(C)C(=O)COc2ccccc2)[C@@H]2C(=O)N(Cc3ccccc3)C(=O)[C@@H]21
AC50 [5]: 3.82 µM (active) | AC50 [6]: 4.2 µM (active) | AC50 [12]: 1.53 µM (active) | AC50 [14]: 2.2 µM (active)

CC(C)N(Cc1ccccc1)C(S)=NC1CCCCC1
IC50 [18]: > 50 µM (inactive)

Cc1ccc2oc(NC(=O)N3CCOCC3)cc(=O)c2c1
IC50 [18]: > 50 µM (inactive)

Cc1ccc(C2(C)NC(=O)N(CC(=O)Nc3ccccc3N3CCCC3)C2=O)cc1 (stereo not given)
EC50 [15]: > 350 µM (not active) | EC50 [16]: > 350 µM (not active)

O=C1CC(Nc2ccccc2)C(=O)N1Cc1ccccc1 (stereo not given)
EC50 [15]: > 350 µM (not active) | EC50 [16]: > 350 µM (not active)

Oc1ccc(/C=C/c2ccc3cccc(O)c3n2)cc1Br
EC50 [9]: 1.03 µM (active) | EC50 [10]: 2.72 µM (active) | AC50 [7]: 1.35 µM (active)

O=c1c(Cc2ccccc2)c(O)ccn1CCc1c[nH]cn1
EC50 [17]: 3760 nM (active)

COC(C[C@H](O)C[C@@H](O)[C@H](C)OCc1ccccc1)OC
IC50 [18]: > 50 µM (inactive)

Cc1ccc(-n2cc(CNC(C)Cc3cnccn3)c(-c3cccc(C)c3)n2)cc1 (stereo not given)
EC50 [17]: 5960 nM (active)
